Experimental data from DBAASP.
Values after ≈ are worked out from the molar mass of the structure shown.

Experiments:
Test in all cases: ≥ marks a high value that may be exact or a test limit, other limits are often not marked, values filed in µg/mL are converted to µM
Bacillus cereus = test system: Bacillus cereus
Staphylococcus aureus = test system: Staphylococcus aureus
Escherichia coli = test system: Escherichia coli
Bacillus subtilis = test system: Bacillus subtilis
Candida albicans = test system: Candida albicans

Structure (SMILES) | MIC (Bacillus cereus) [µM] | MIC (Staphylococcus aureus) [µM] | MIC (Escherichia coli) [µM] | MIC (Bacillus subtilis) [µM] | MIC (Candida albicans) [µM]
CC(C)C[C@H](NC(=O)[C@H](CCCCN)NC(=O)[C@H](Cc1ccccc1)NC(=O)[C@@H](NC(=O)[C@H](CCCCN)NC(=O)[C@H](CCCCN)NC(=O)[C@H](CC(C)C)NC(=O)[C@@H](N)Cc1ccccc1)C(C)C)C(=O)N[C@@H](C)C(=O)N[C@@H](CO)C(=O)N[C@@H](CCCCN)C(=O)N[C@H](C(=O)N[C@@H](Cc1ccccc1)C(=O)N1CCC[C@H]1C(=O)N[C@@H](C)C(=O)N[C@H](C(=O)N[C@@H](Cc1ccccc1)C(=O)NCC(=O)N[C@@H](CCCCN)C(=O)N[C@H](C(=O)O)C(C)C)C(C)C)C(C)C [FLKKVFKLASKVFPAVFGKV] | 14.2 (≈ 32 µg/mL) | 28.4 (≈ 64 µg/mL) | 1.77 (≈ 4 µg/mL) |  | 
CC(C)C[C@H](NC(=O)[C@@H](N)Cc1ccccc1)C(=O)N[C@@H](CCCCN)C(=O)N[C@H](C(=O)N[C@H](C(=O)N[C@@H](Cc1ccccc1)C(=O)N[C@@H](CCCCN)C(=O)N[C@@H](CCCCN)C(=O)N[C@@H](C)C(=O)N[C@@H](CO)C(=O)N[C@@H](CCCCN)C(=O)N[C@H](C(=O)N[C@@H](Cc1ccccc1)C(=O)N1CCC[C@H]1C(=O)N[C@@H](C)C(=O)N[C@H](C(=O)N[C@@H](Cc1ccccc1)C(=O)NCC(=O)N[C@@H](CCCCN)C(=O)N[C@H](C(=O)O)C(C)C)C(C)C)C(C)C)C(C)C)C(C)C [FLKVVFKKASKVFPAVFGKV] | ≥ 57.1 | > 57.1 | 57.1 (≈ 128 µg/mL) |  | 
CC(C)C[C@H](NC(=O)[C@H](CCCCN)NC(=O)[C@H](Cc1ccccc1)NC(=O)[C@@H](NC(=O)[C@@H](NC(=O)[C@H](CCCCN)NC(=O)[C@H](CC(C)C)NC(=O)[C@@H](N)Cc1ccccc1)C(C)C)C(C)C)C(=O)N[C@@H](C)C(=O)N[C@@H](CO)C(=O)N[C@@H](CCCCN)C(=O)N[C@H](C(=O)N[C@@H](Cc1ccccc1)C(=O)NCC(=O)N[C@@H](C)C(=O)N[C@H](C(=O)N[C@@H](Cc1ccccc1)C(=O)NCC(=O)N[C@@H](CCCCN)C(=O)N[C@H](C(=O)O)C(C)C)C(C)C)C(C)C [FLKVVFKLASKVFGAVFGKV] | 7.32 (≈ 16 µg/mL) | 7.32 (≈ 16 µg/mL) | 58.6 (≈ 128 µg/mL) |  | 
CC(C)C[C@H](NC(=O)[C@H](CCCCN)NC(=O)[C@H](Cc1ccccc1)NC(=O)[C@@H](NC(=O)[C@@H](NC(=O)[C@H](CCCCN)NC(=O)[C@H](CC(C)C)NC(=O)[C@@H](N)Cc1ccccc1)C(C)C)C(C)C)C(=O)N[C@@H](C)C(=O)N[C@@H](CO)C(=O)N[C@@H](CCCCN)C(=O)N[C@H](C(=O)N[C@@H](Cc1ccccc1)C(=O)N1CCC[C@H]1C(=O)N[C@@H](C)C(=O)N[C@H](C(=O)N[C@@H](Cc1ccccc1)C(=O)NCC(=O)N[C@@H](CCCCN)C(=O)N[C@H](C(=O)O)C(C)C)C(C)C)C(C)C [FLKVVFKLASKVFPAVFGKV] | 7.19 (≈ 16 µg/mL) | 1.8 (≈ 4 µg/mL) | 14.4 (≈ 32 µg/mL) |  | 
CC[C@H](C)[C@H](NC(=O)[C@H](CC(C)C)NC(=O)[C@H](C)NC(=O)[C@@H]1CCCN1C(=O)[C@H](CC(C)C)NC(=O)CN)C(=O)N[C@@H](CO)C(=O)N[C@@H](Cc1c[nH]c2ccccc12)C(=O)N[C@@H](CO)C(=O)N[C@@H](CCCCN)C(=O)N[C@@H](CCCN=C(N)N)C(=O)N[C@@H](CCCCN)C(=O)N[C@@H](CCCN=C(N)N)C(=O)N[C@@H](CCC(N)=O)C(=O)N[C@@H](CCC(N)=O)C(N)=O [GLPALISWSKRKRQQ] |  | 53.3 (≈ 94.1 µg/mL) | > 53.4 | ≥ 40 | 
CC[C@H](C)[C@H](N)C(=O)N[C@@H](CC(N)=O)C(=O)N[C@@H](Cc1ccccc1)C(=O)N[C@@H](CC(C)C)C(=O)N[C@@H](CCCCN)C(=O)N[C@@H](CC(C)C)C(=O)NCC(=O)N[C@@H](CCCCN)C(=O)N[C@@H](CCCCN)C(=O)N[C@H](C(=O)N[C@@H](CC(C)C)C(=O)NCC(=O)N[C@@H](C)C(=O)N[C@@H](CC(C)C)C(N)=O)[C@@H](C)CC [INFLKLGKKILGAL] |  |  | > 100 | 22.5 (≈ 34.4 µg/mL) | 
CC[C@H](C)[C@H](N)C(=O)N[C@@H](CC(N)=O)C(=O)N[C@@H](Cc1c[nH]c2ccccc12)C(=O)N[C@@H](CCCCN)C(=O)N[C@@H](CCCCN)C(=O)N[C@H](C(=O)N[C@@H](C)C(=O)N[C@@H](CO)C(=O)N[C@H](C(=O)NCC(=O)N[C@@H](CCCCN)C(=O)N[C@@H](CCC(=O)O)C(=O)N[C@H](C(=O)N[C@@H](CC(C)C)C(=O)N[C@@H](CCCCN)C(=O)N[C@@H](C)C(N)=O)C(C)C)[C@@H](C)CC)[C@@H](C)CC [INWKKIASIGKEVLKA] |  |  | 75 (≈ 135 µg/mL) | ≥ 70 | 
CC[C@H](C)[C@H](N)C(=O)N[C@@H](CC(N)=O)C(=O)N[C@@H](Cc1c[nH]c2ccccc12)C(=O)N[C@@H](CC(C)C)C(=O)N[C@@H](CCCCN)C(=O)N[C@@H](CC(C)C)C(=O)NCC(=O)N[C@@H](CCCCN)C(=O)N[C@@H](CCCCN)C(=O)N[C@H](C(=O)N[C@@H](CC(C)C)C(=O)NCC(=O)N[C@@H](C)C(=O)N[C@H](C(N)=O)[C@@H](C)CC)[C@@H](C)CC [INWLKLGKKILGAI] |  |  | 67.5 (≈ 106 µg/mL) | 25 (≈ 39.2 µg/mL) | 
CC[C@H](C)[C@H](N)C(=O)N[C@@H](CC(N)=O)C(=O)N[C@@H](Cc1c[nH]c2ccccc12)C(=O)N[C@@H](CO)C(=O)N[C@@H](CO)C(=O)N[C@H](C(=O)N[C@@H](Cc1ccccc1)C(=O)N[C@@H](CCC(=O)O)C(=O)N[C@@H](CO)C(=O)N[C@H](C(=O)N[C@@H](CO)C(=O)N[C@@H](CC(N)=O)C(=O)N[C@@H](CC(C)C)C(=O)N[C@H](C(N)=O)C(C)C)C(C)C)[C@@H](C)CC [INWSSIFESVSNLV] |  |  | > 100 | ≥ 100 | 
CC[C@H](C)[C@H](NC(=O)[C@H](CCCCN)NC(=O)[C@H](CCCCN)NC(=O)[C@H](Cc1c[nH]c2ccccc12)NC(=O)[C@@H](NC(=O)[C@@H](N)CC(N)=O)[C@@H](C)CC)C(=O)N[C@@H](Cc1ccccc1)C(=O)N[C@@H](CCC(=O)O)C(=O)N[C@@H](CCCCN)C(=O)N[C@H](C(=O)N[C@@H](CCCCN)C(=O)N[C@@H](CC(N)=O)C(=O)N[C@@H](CC(C)C)C(=O)N[C@H](C(N)=O)C(C)C)C(C)C [NIWKKIFEKVKNLV] |  |  | 25 (≈ 44 µg/mL) | 20 (≈ 35.2 µg/mL) | 
CC[C@H](C)[C@H](NC(=O)[C@H](CCCCN)NC(=O)[C@H](CS)NC(=O)[C@H](C)NC(=O)[C@@H](NC(=O)[C@H](Cc1ccccc1)NC(=O)CNC(=O)[C@H](CC(C)C)NC(=O)CNC(=O)[C@@H](NC(=O)[C@H](CCCN=C(N)N)NC(=O)CNC(=O)[C@H](CC(C)C)NC(=O)[C@H](CC(N)=O)NC(=O)[C@H](CCCCN)NC(=O)[C@H](CC(C)C)NC(=O)[C@@H](NC(=O)[C@H](CO)NC(=O)[C@H](CC(C)C)NC(=O)[C@H](CCSC)NC(=O)[C@@H](N)CO)C(C)C)C(C)C)C(C)C)C(=O)N[C@@H](CC(N)=O)C(=O)N[C@@H](CCCCN)C(=O)N[C@@H](CCC(N)=O)C(=O)N[C@@H](CS)C(=O)O [SMLSVLKNLGRVGLGFVACKINKQC] |  | 100 (≈ 268 µg/mL) | 20 (≈ 53.6 µg/mL) |  | 100 (≈ 268 µg/mL)
